Test results reported in US6972287B1, “Method of inhibiting amyloid protein aggregation and imaging amyloid deposits” (Pfizer Inc., priority 1999, dated 2005).
Where “and” joins values, the source holds several entries; their conditions need not be identical. Equal values may be shown once.

Columns and labels:
[1] = target: T1, Aβ (1-40) peptide (Homo sapiens, UniProt P05067); assay: BAPA (Beta-Amyloid Peptide Aggregation, pH 6.0, filtration); type: biochemical; conditions: Aβ (1-40) 33 μM, pH 6.0, 2 to 4 hours at room temperature; replicate values; letter = synthetic lot
T1 construct: 10 μL 0.5 mg/mL Aβ (1-40) peptide in 20% HFIP
T1 sequence (P05067 672-711 limits assumed): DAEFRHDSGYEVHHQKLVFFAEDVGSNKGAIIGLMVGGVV
Procedure: Each 96-well plate can therefore accommodate 11 samples+1 Congo Red control (0.039-5 μM final in 2-fold steps). • 4) Seal the plate with aluminum film and incubate for 10 minutes on ice. • 5) Raise the temperature to 37° C. and incubate for 3 to 5 hours (depends on the lot of the peptide). • 6) Remove the aluminum film and add 250 μL/well of 5 μM thioflavin T (ThT) [T-3516, Sigma-Aldrich] in 50 mM glycine-NaOH, pH 8.5. […] The purpose of this assays is to provide a higher volume method of assaying the amount of beta amyloid aggregation using an endpoint assay based on filtration. In this assay, hexafluoroisopropanol (HFIP) is used to break down the initial amyloid peptide to a monomer state and use a concentration of 33 μM which is high enough so that aggregation will occur at pH 6.0 in several hours. Methods: […] Then, we incubate for 2 to 4 hours at room temperature. […] We wash the filter plate with 100 μL of the same phosphate buffer. Aggregation was detected on a Microbeta counter after impregnating the filters with Meltilex (1450-441) and is corrected for background.

[2] = target: T2, Aβ(1-40) (Homo sapiens, UniProt P05067); assay: BASST (Beta-Amyloid Self-Seeding, Thioflavin T), inhibitors of self-seeded amyloid fibril growth; type: biochemical; conditions: 30 μM soluble Aβ(1-40), 37° C., 3 to 5 hours, thioflavin T fluorescence; replicate values; letter = synthetic lot; read-out: BASST (IC50 = μM)
T2 construct: […]; purchased Bachem, Torrance, Calif
T2 sequence (P05067 672-711 limits assumed): as above
Procedure: (§1) An assay for inhibitors of self-seeded amyloid fibril growth
Assay Buffer—50 mM sodium phosphate, pH 7.5, 100 mM NaCl, 0.02% NaN3, 1 M urea (filter and store at 4° C.)
(§2) Typically, the solution should be stored until no lag phase is seen in the assay.
The following are the amounts of the components of the reaction mixture that result in each of the 50 assay wells:
• 1) Prepare the reaction mix above by mixing the components and storing on ice. • 2) Pipet 14.5 μL of reaction mixture into each of 50 wells of a polystyrene U-bottom 96-well microtiter plate (Corning 25881-96) on ice. • 3) Add 1.7 μL of diluted compound to be tested to each well in a column of eight, including solvent control. Serial 3-fold dilutions from 1 mM (100 μM final) in assay buffer−urea=7 dilutions+zero. Each 96-well plate can therefore accommodate 11 samples+1 Congo Red control (0.039-5 μM final in 2-fold steps). • 4) Seal the plate with aluminum film and incubate for 10 minutes on ice. • 5) Raise the temperature to 37° C. and incubate for 3 to 5 hours (depends on the lot of the peptide). • 6) Remove the aluminum film and add 250 μL/well of 5 μM thioflavin T (ThT) [T-3516, Sigma-Aldrich] in 50 mM glycine-NaOH, pH 8.5. Read fluorescence on a plate reader (ex=440 nm/20 nm; em=485 nm/20 nm) within 5 minutes. BAPA (Beta-Amyloid Peptide Aggregation)

[3] = target: T2, Aβ(1-40); assay: BASSR (Beta-Amyloid Self-Seeding Radioassay), inhibitors of self-seeded amyloid fibril growth; type: biochemical; conditions: 30 μM soluble Aβ(1-40) + 125I-labeled Aβ(1-40), 37° C., 3 to 5 hours; replicate values; letter = synthetic lot; ppt = precipitate; V-shaped = inhibition followed by precipitation
Procedure: BASSR (Beta-Amyloid Self-Seeding Radioassay)
as §1
Assay Buffer—50 mM sodium phosphate, pH 7.5, 100 mM NaCl, 0.02% NaN3, 1 M urea (filter and store at 4° C.).
as §2
^125I-labeled Aβ(1-40)—150K-350K cpm/μL in 100% acetonitrile—0.1% trifluoroacetic acid (TFA)—1% β-mercaptoethanol (aliquots stored at −20° C.). ^125I-labeled Aβ(1-40) can be made in accordance with the procedure set forth by H. LeVine, III in Neurobiol. Aging, 16, 755, (1995), which is hereby incorporated by reference, or this reagent may be purchased from Amersham, Arlington Heights, Ill.
The following are the amounts of the components of the reaction mixture sufficient for 50 assay wells:
• 1) Prepare reaction mixture above by mixing components and storing on ice. • 2) Pipet 14.5 μL of reaction mixture into each of 50 wells on a polypropylene U-bottom 96-well microtiter plate on ice. (Costar 3794). • 3) Add 1.7 μL of diluted compound to be tested to each well in a column of eight, including solvent control. Serial 3-fold dilutions from 1 mM (100 μM final) in assay buffer−urea=7 dilutions+zero. Each 96-well plate can therefore accommodate 11 samples+1 Congo Red control (0.039-5 μM final in 2-fold steps). • 4) Seal the plate with aluminum film (Beckman 538619) and incubate for 10 minutes on ice. • 5) Raise the temperature to 37° C. and incubate for 3 to 5 hours (depending on the lot of the peptide). • 6) Remove the aluminum film and add 200 μL/well of ice cold assay buffer with urea, collecting the radiolabeled fibrils by vacuum filtration through 0.2 μm pore size GVWP filters in 96-well plates (Millipore MAGV N22, Bedford, Mass.). Determine the radioactivity of the filters using standard methods well-known to those skilled in the art. BASST (Beta-Amyloid Self-Seeding, Thioflavin T)

[4] = target: T3, Aβ (1-42) (Homo sapiens, UniProt P05067); assay: BATYM assay (Aβ (1-42) aggregation, Thioflavin T fluorescence); type: biochemical; conditions: Aβ 1-42 final concentration 100 μM, 37° C., 1 day, letter = synthetic lot
T3 construct: Required Aβ (1-42) (California Peptide) was dried from its hexafluoroisopropanol (HFIP) stock solution; purchased California Peptide
T3 sequence (P05067 672-713 limits assumed): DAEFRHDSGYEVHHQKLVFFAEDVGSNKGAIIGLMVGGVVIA
Procedure: Required Aβ (1-42) (California Peptide) was dried from its hexafluoroisopropanol (HFIP) stock solution. The Aβ (1-42) was dissolved in dimethylsulfoxide (DMSO) and then mixed with phosphate buffered saline (PBS) (pH 7.4). The mixed Aβ (1-42) solution was filtered with a 0.2 μm Omnipore membrane syringe filter Millipore, Bedford, Mass.). The compound to be tested in DMSO (50 times concentrate) was put into each well (0.5 μL/well) of a 96-well plate. The Aβ (1-42) solution was added into each well (24.5 μL/well). The plate was centrifuged at 1,000 g for 5 minutes and incubated at 37° C. for 1 day (Aβ 1-42; final concentration 100 μM).
After incubation Thioflavin T (ThT) (30 μM) solution in glycine-NaOH buffer (pH 8.5, 50 mM) was added into each well (250 μL/well), fluorescence was measured (ex=440/20 nm, em=485/20 nm) using a fluorescence plate reader. The inhibitory activity was calculated as the reduction of fluorescence with the following formula: Inhibition (%)={(F(Aβ)−F(Aβ+compound)}/{F(Aβ)−[…]}×100
The IC50s were calculated by a curve fitting program using the following equation. The data were obtained from two different experiments in triplicate.
x=Concentration of tested compound (M),

IC50 [1] [µM] | IC50 [2] | IC50 [3] [µM] | IC50 [4] [µM] | melting point [°C] | SMILES
52 | 1 µM | > 100 | 26.5 | – | CCCCN(CCCC)c1ccc(CCCc2ccc(Nc3ccccc3C(=O)O)cc2)cc1 [Example 44, 2-{4-[3-(4-Dibutylaminophenyl)propyl]phenylanino}benzoic acid]
32 | 1 µM | > 100 | 21.5 | – | CCCCN(CCCC)c1cccc(CCCc2ccc(Nc3ccccc3C(=O)O)cc2)c1 [Example 45, 2-{4-[3-(3-Dibutylaminophenyl)propyl]phenylamino}benzoic acid]
– | 6 µM | > 100 | 34.3 | 131 to 136 | O=C(O)c1ccccc1Nc1ccc(CCCc2ccc(-n3cccc3)cc2)cc1 [Example 46, 2-(4-{3-[4-(1H-Pyrrol-1-yl)phenyl]propyl}phenylamino)benzoic acid]
– | 10 µM | 25 | > 100 | 57 to 62 | CCN(CC)C(=O)c1ccc(CCCc2ccc(Nc3ccccc3C(=O)O)cc2)cc1 [Example 48, 2-{4-[3-(4-Diethylcarbamoylphenyl)propyl]phenylamino}benzoic acid]
110 | 1 µM | > 100 | > 100 | – | Clc1ccc(CCc2ccc(Nc3ccccc3-c3nnn[nH]3)cc2)cc1Cl [Example 68, {4-[2-(3,4-Dichloro-phenyl)-ethyl]-phenyl}-[2-(1H-tetrazol-5-yl)phenyl]-amine]
– | 2 µM and 300 nM (2×) | > 100 | – | 203 to 206 | O=C(O)c1ccccc1Nc1ccc(CCc2ccc(N3CC[C@@H]4CCCC[C@H]4C3)cc2)cc1 [Example 82, 2(4-{2-[(4aS,8aR)-4-(Octahydro-isoquinolin-2-yl)-phenyl]-ethyl}-phenylamino)-benzoic acid]
– | 1 µM | > 100 | – | 155 to 158 | COc1ccc(Nc2ccc(CCCCc3ccc(Cl)c(Cl)c3)cc2)c(C(=O)O)c1 [Example 121, 2-{4-[4-(3,4-Dichloro-phenyl)-butyl]-phenylamino}-5-methoxy-benzoic acid]
53 | 3 µM | > 100 | > 100 | – | O=C(O)c1ccccc1Nc1ccc(CCc2ccc(Nc3ccccc3C(=O)O)cc2)cc1 [Example 136, 2-{4-[2-(4-{2-Hydroxycarbonylphenylamino}phenyl)ethyl]-phenylamino}-benzoic acid]
– | – | – | – | 74 to 78 | COc1cc(Nc2ccc(CCCc3ccc(Cl)c(Cl)c3)cc2)c([N+](=O)[O-])cc1C(=O)O [Example 138, 4-{4-[3-(3,4-Dichloro-phenyl)propyl]-phenylamino}-2-methoxy-5-nitro-benzoic acid]
– | – | – | – | 122 to 123 | O=C(O)c1cc(F)ccc1Nc1ccc(CCCc2ccc(Cl)c(Cl)c2)cc1 [Example 139, 2-{4-[3-(3,4-Dichloro-phenyl)-propyl]-phenylamino}-5-fluoro-benzoic acid]
– | – | – | – | 182 to 184 | Nc1ccc(Nc2ccc(CCCCCc3ccc(Cl)c(Cl)c3)cc2)c(C(=O)O)c1 [Example 140, 5-Amino-2-{4-[5-(3,4-dichloro-phenyl)pentyl]-phenylamino}-benzoic acid]
> 50 | 7 µM | > 100 | 56.7 | – | O=C(NS(=O)(=O)C(F)(F)F)c1ccccc1Nc1ccc(CCCc2ccc(Cl)c(Cl)c2)cc1 [Example 141, N-(2-{4-[3-(3,4-Dichloro-phenyl)-propyl]-phenylamino}-benzoyl)-C,C,C,-trifluoro-methanesulfonamide]
55 | 2.1 µM | > 100 | 26.9 | – | O=C(NS(=O)(=O)c1ccccc1)c1ccccc1Nc1ccc(CCCc2ccc(Cl)c(Cl)c2)cc1 [Example 142, N-(2-{4-[3-(3,4-Dichloro-phenyl)propyl]-phenylamino}-benzoyl)-benzenesulfonamide]
> 60 | 30 µM | > 100 | > 100 | – | O=C(O)c1cccc(C(F)(F)F)c1Nc1ccc(CCc2ccc(Cl)c(Cl)c2)cc1 [Example 146, 2-{4-[2-(3,4-Dichloro-phenyl)-ethyl]-phenylamino}-3-trifluoromethyl-benzoic acid]
> 60 | > 100 µM | > 100 | > 100 | – | CCCN(CCC)c1ccc(Nc2ccc(CCc3ccc(Cl)c(Cl)c3)cc2)c(C(=O)O)c1 [Example 149, 2-{4-[2-(3,4-Dichlorophenyl)-ethyl]-phenylamino}-5-dipropylamino-benzoic acid]
76 | 10 µM | > 100 | > 100 | – | CCCCN(CCCC)c1ccc(Nc2ccc(CCc3ccc(Cl)c(Cl)c3)cc2)c(C(=O)O)c1 [Example 150, 5-Dibutylamino-2-{4-[2-(3,4-dichloro-phenyl)-ethyl]-phenylamino}-benzoic acid]
– | – | – | – | 110 to 112 | Nc1ccc(CCCc2ccc(Nc3ccccc3C(=O)O)cc2)cc1 [Example 159, 2-{4-[3-(4-Aminophenyl)propyl]phenylamino}benzoic acid]

SMILES | IC50 [1] [µM] | IC50 [2] | IC50 [3] [µM] | IC50 [4] [µM] | melting point [°C]
O=C(O)c1ccccc1Nc1ccc(CCc2ccc(Cl)c(Cl)c2)cc1 [Example 117, 2-{4-[2-(3,4-Dichloro-phenyl)-ethyl]-phenylamino}-benzoic acid monosodium] | > 100 | 3 µM | > 100 | 61.3 | –
